Source: patent US7348305B2, “Inhibitor of cardiac tachyarrhythmias” (Department of Veterans Affairs, Rehabilitation, priority 2003, dated 2008)
“Also recorded” adds a separate entry of the source. Read-outs that look alike come from different tables or passages of the source.

Columns and labels:
[1] = test system: ventricular tachyarrhythmias following LAD coronary artery ligation; settings: nadolol-treated dogs (Patterson et al., 1986), cited from earlier work
[2] = test system: ventricular tachyarrhythmias following LAD coronary artery ligation; experiment: Model 1: two-stage LAD coronary artery ligation, Holter EKG monitoring 2-24 hr (ventricular triplets, sustained VT/VF, death); type: in vivo, dog; settings: for fastest ventricular triplet rate observed per hour after LAD ligation (FIG. 18, FIG. 32): 4 to 24 hr after LAD ligation; for mortality (dogs died of group): 24 hr after LAD ligation, etanercept 2 mg/kg at -24 and -1 hr, bortezomib 0.0875 mg/kg at -1 and +6 hr, anakinra 10 mg/kg at -1 and +12 hr, control 4 of 10, preliminary
Procedure: The two-stage ligation procedure results in a very low incidence of ventricular fibrillation (<5-10%) during the initial 6 hours following coronary artery occlusion (Harris et al., 1951). Almost all ventricular fibrillation occurs during the initial 30 minutes with a high proportion of successful defibrillation. Ambulatory EKG monitoring is performed over the 2-24 hr period following coronary artery ligation. During the 6-24 hr period, a 25-40% incidence of rapid monomorphic ventricular tachycardia (385±15/min) leading to ventricular fibrillation is observed at 13.3±0.8 hours post-LAD ligation (FIG. 1), with a mean duration of monomorphic ventricular tachycardia preceding ventricular fibrillation of 66±7 sec. When provocative ventricular pacing is performed at 24 hours, however, the reentrant substrate supporting sustained ventricular tachycardia is present in more than 80% of the surviving dogs with no difference in rate between spontaneous and pacing-induced sustained monomorphic ventricular tachycardias (FIG. 3).
In the 24-hr Infarct (Model 1) Studies, each control and etanercept pretreated animal was monitored for ventricular arrhythmias using a Holter 2-lead recording for the duration of time following LAD ligation. […] In the saline control group, 4 animals died at 11-24 hours post ligation. […]
Model 1: Electrophysiologic correlates of myocardial infarction over a 24-hr period. Eighteen 15-22 kg male mongrel dogs were anesthetized with IV sodium pentobarbital (30 mg/kg). A cuffed endotracheal tube was inserted and the animals were ventilated with room air using a volume-cycled respirator. […] The dogs were extubated and allowed to awaken in a temperature-controlled, humidified small animal post-operative recovery unit. They were given nalbuphine 0.2 mg/kg for post-operative analgesia. During the 2-24 hr period following LAD ligation, Holter monitoring was performed and the two-lead EKG was recorded on magnetic tape. Dogs were re-anesthetized with sodium pentobarbital at 24-hr. The thoracotomy was reopened and the heart was removed and perfused with ice-cold Tyrode's buffer via the left main coronary artery. The outer 0.5-1.5 mm EBZ tissue overlying the infarct was shaved and a longitudinal sample of tissue from the LAD region was stained with triphenyltetrazolium chloride (0.1%) to determine viability of the EBZ. Triphenyltetrazolium (TTZ) forms a brick-red precipitate in the presence of active intracellular dehydrogenases, delineating vital tissue. Non-viable tissues are not stained and remain a pale color. […] Tissue samples from the RS, the EBZ and the infarct tissue were dissected rapidly on an ice-cold surface, placed in freezer vials, and frozen in liquid nitrogen. These samples were then stored at −70° C. for later assay.
EKG Analysis: Full disclosure EKG records were obtained at 10 mm/sec for the entire 2-24 hour post-occlusion period. All measurements and calculations were made by direct visual observation and manual counting.
Anti-TNFα Treatment: A dosage of 2 mg/kg hTNFR:Fc (supplied as etanercept, Amgen, Inc, Thousand Oaks, Calif.) or saline were injected IV into a forepaw vein at 24-hr and again 1-hr prior to LAD ligation. […] This dosage was used after consultation with the pharmaceutical corporate pharmacology section and based on unpublished internal data that this dosage would provide maximal sequestration of tissue and circulating TNFα.

[3] = test system: β-adrenergic receptor kinase (βARK); experiment: βARK immunoblot of EBZ tissue 24 hr after LAD ligation (Model 1); type: in vivo, dog; settings: bortezomib pretreated dog versus saline control, 24-hour infarct
Procedure: βARK immunoblots were used to estimate βARK expression (Yu et al., 2000).
Western Blot Analysis: Assessment of βARK content was conducted using standard SDS-PAGE and immunoblot techniques. Samples containing 100 μg of protein from myocardial extracts were electrophoresed using 10% SDS-PAGE and transferred to nitrocellulose membranes. The membrane was incubated with monoclonal anti-βARK (Upstate Biotechnology, Inc, Lake Placid, N.Y.), followed by exposure to peroxidase-linked anti-mouse IgG. Antibody binding was detected by a chemiluminescent method (ECL, Amersham Biosciences Corp, Piscataway, N.J.). Quantification of immunoreactive proteins was performed by densitometric scanning and with Image QuaNT software (Molecular Dynamics).
β-ARK, Proteasome and Ubiquitin Expression Assays: β-ARK, ubiquitinated β-ARK and proteasome in EBZ and RS tissues was determined by Western blot analysis. Samples were adjusted after protein concentration was assayed (BCA, Pierce Chemicals) to provide identical loads. 100 μg protein was combined with equal volume of SDS sample buffer, and electrophoresed on a 10% polyacrylamide gel. The blocked membranes were incubated with mouse anti β-ARK monoclonal antibody (Santa Cruz Biotechnology, Santa Cruz, Calif.) for 1-h at room temperature followed by anti-mouse IgG coupled to horseradish peroxidase and developed using an ECL western blotting kit (Amersham). The bands were scanned, stripped and reprobed with mouse anti-ubiquitin antibody (Santa Cruz Biotechnology, Santa Cruz, Calif.). The membrane was rescanned, stripped a second time and reprobed with rabbit anti-proteasome 20S C2 subunit polyclonal antibody (A.G. Scientific, Inc. CA). A separate control gel was included that was similarly treated, but reprobed with the identical Ab and band quality and density compared to the previous data obtained before stripping. Quantitation of immunoreactive bands was performed by densitometric scanning using ImageQuant software (Molecular Dynamics).

proteasome [4] = experiment: Proteasome chymotrypsin-like peptidase activity in packed whole blood cells after injection; type: in vivo, dog; settings: 0.175 mg/kg, 1 hr before and 8 hr after LAD ligation; 1-24 hr after first injection; n=4
Procedure: (§1) Whole blood was measured at each time interval (FIGS. 29A and 29B), and ischemic myocardial tissue proteasome activity was measured at the final time interval (FIG. 30).
(§2) Proteasome activity: Activity was determined by proteasome chymotrypsin-like peptidase activity assay. Both cardiac (all groups) and whole blood cell (groups 4 and 5) proteasome activity was assayed. 30 mg frozen cardiac tissue was powdered in liquid nitrogen and sonicated in 0.5 ml buffer. Samples were then centrifuged for 30 min at 10,000 g at 4° C. and the supernatant was used for the assay. For preparing whole blood cell, heparinized blood was washed one time with saline and twice with cold PBS. The cells were lysed with EDTA (5 mM, pH 8.0) for 1 hr and centrifuged at 6600 g for 10 min at 4° C. and the supernatant was used for the assay. 0.4 mM Suc-Ala-Ala-Phe-MAC (Bachem California) was used as substrate. […] The time course for fluorescence was measured using a VICTOR3 Multilabel Counter (Perkin Elmer, Inc) at time 0 and every 5 min for 1 h to estimate the MAC liberated (excitation 380 nm, emission 460 nm). Slopes and intercepts were calculated using Microsoft Excel. Final results were expressed as fluorescence units/μg protein/min.

proteasome [5] = experiment: Proteasome chymotrypsin-like peptidase activity in myocardial tissue (RS, EBZ, INF) after injection; type: in vivo, dog; settings: 0.175 mg/kg, INF tissue 23-hr after LAD ligation, n=4, control tissues averaged 45 FU/100 μg protein/min
Procedure: as §1, §2

[6] = target: β-adrenergic receptors in epicardium; experiment: Action potential shortening with isoproterenol in epicardium; parameters: species or system dog
Description: This information is consistent with increased β-ARK-1 activity and decreased β-adrenergic receptor sensitivity in ventricular myocardium with chronic catecholamine administration or the converse, a decrease in β-ARK-1 with prolonged β-adrenergic receptor blockade (Pye et al., 2003).

[7] = target: β-adrenergic receptor / adenylate cyclase; settings: read-out: mean EC50, isoproterenol-AC activity, SEM, n=4
Procedure: FIG. 10 illustrates an isoproterenol-AC activity dose-response curve in EBZ and RS tissue obtained 24 hours after LAD ligation. Data are shown for 1 of 4 experiments. Each point is mean of duplicate samples.

CC(C)(C)NCC(O)COc1cccc2c1CC(O)C(O)C2 (centres unmarked) [nadolol]
incidence of sudden death, 2-24 hr after coronary artery ligation ([1]; FIG. 6): reduce the incidence of sudden death
rate and number of rapid ventricular triplets, 2-24 hr after coronary artery ligation ([1]; FIGS. 7 and 8): reduce both the rate and number of rapid ventricular triplets
incidence of pacing-induced sustained monomorphic reentrant tachycardia in surviving animals at 24 hours [1]: without reducing the incidence
infarct mass [1]: without altering infarct mass

anakinra: interleukin-1 antagonist (IL-1 inhibitor)
fastest ventricular triplet rate observed per hour after LAD ligation (FIG. 18, FIG. 32) [2]: no significant difference between etancercept and anakinra
mortality (dogs died of group) [2]: 1 of 7
rapid (>300 bpm) ventricular triplets per hour versus control (FIG. 31A) ([2]; etanercept 2 mg/kg, bortezomib 0.0875 mg/kg, anakinra 10 mg/kg): relatively low until 8 hours after LAD and then rose rapidly

CC(C)C[C@H](NC(=O)[C@H](Cc1ccccc1)NC(=O)c1cnccn1)B(O)O [bortezomib]
fastest ventricular triplet rate observed per hour after LAD ligation (FIG. 18, FIG. 32) [2]: marked decrease
mortality (dogs died of group) [2]: 0 of 6
very rapid (≧360 bpm) ventricular triplets versus control (FIG. 31B) ([2]; etanercept 2 mg/kg, bortezomib 0.0875 mg/kg): significant descrease; also recorded: no triplets in this range
protection against loss of βARK (GRK2) protein in EBZ, Western immunoblot (FIG. 34) [3]: marked protection against loss of βARK protein; also recorded: significant protection against loss of GRK2 expression
packed whole blood proteasome activity after injection (proteasome [4]): significant decrease in proteasome activity
myocardial tissue proteasome activity 24-hr after first injection (proteasome [5]): decreased from control tissues

CC(C)NCC(O)c1ccc(O)c(O)c1 (centres unmarked) [isoproterenol]
EC50 ([6]; control normal tissue): 0.47 nM
EC50 ([6]; remote site normal tissue, 24 hours post LAD ligation): 14.3 nM
EC50 ([7]; EBZ tissue 24 hours after LAD ligation): 18 ± 8.9 nM
EC50 ([7]; RS tissue 24 hours after LAD ligation): 73 ± 22 nM
